Data as given in ChEMBL document CHEMBL1759886, “Biological evaluation of phenolic constituents from the trunk of Berberis koreana” (Bioorg Med Chem Lett, 2011).

Tests used:
Format in all cases: functional, cell-based
SK-OV-3 = test: Anticancer activity against human SKOV3 cells by SRB assay
XF498 = test: Anticancer activity against human XF498 cells by SRB assay
BV-2 = test: Antiinflammatory activity in mouse BV2 cells assessed as inhibition of lipopolysaccharide induced NO production
SK-MEL-2 = test: Anticancer activity against human SK-MEL-2 cells by SRB assay
A549 = test: Anticancer activity against human A549 cells by SRB assay

| Compound | IC50 (SK-OV-3) [µM] | IC50 (XF498) [µM] | IC50 (BV-2) [µM] | IC50 (SK-MEL-2) [µM] | IC50 (A549) [µM] |
| --- | --- | --- | --- | --- | --- |
| COc1cc(C[C@H]2CO[C@H](c3ccc(O)c(OC)c3)[C@H]2CO)ccc1O [LARICIRESINOL] | > 30 | 11.7 | 51.8 | > 30 | 24.5 |
| COc1cc(C[C@@H](CO)[C@](O)(CO)Cc2ccc(O)c(OC)c2)ccc1O | > 30 | 27.6 | 201 | > 30 | > 30 |
| COc1cc([C@@H]2c3cc4c(cc3[C@@H](O[C@@H]3O[C@@H]5CO[C@@H](C)O[C@H]5[C@H](O)[C@H]3O)[C@H]3COC(=O)[C@H]23)OCO4)cc(OC)c1O [ETOPOSIDE] | 1.81 | – | – | – | – |
| COc1ccc(C[C@H]2CO[C@H](c3ccc(OC)c(OC)c3)[C@H]2CO)cc1OC | 21.5 | 15.4 | 44.4 | 25.1 | 20.1 |
| COc1cc(C(=O)CCO)cc(OC)c1O | > 30 | 24.3 | – | > 30 | > 30 |
| COc1cc([C@@H]2OC[C@@H]3[C@H]2CO[C@H]3c2cc(OC)c(O)c(OC)c2)cc(OC)c1O | > 30 | 8.82 | 13.5 | 14.5 | > 30 |
| COc1cc([C@@H]2OC[C@H]3[C@@H]2CO[C@H]3c2ccc(O)c(OC)c2)ccc1O [(-)-PINORESINOL] | > 30 | 13.3 | 26.2 | 26.6 | > 30 |
| COc1cc([C@@H]2OC[C@@H]3[C@H]2CO[C@H]3c2ccc(O[C@@H]3O[C@H](CO)[C@@H](O)[C@H](O)[C@H]3O)c(OC)c2)ccc1O | > 30 | 25.4 | 144 | > 30 | > 30 |
| COc1cc(C(=O)CCO)ccc1O | > 30 | 28.4 | – | > 30 | > 30 |
| COc1cc([C@H]2Oc3c(OC)cc(CCCO)cc3[C@@H]2CO)ccc1O [DIHYDRODEHYDRODICONIFERY ALCOHOL] | > 30 | 13.4 | 28.8 | 23.3 | 22.4 |
| COc1cc([C@H]2c3c(cc(OC)c(O)c3OC)C[C@@H](CO)[C@@H]2CO)cc(OC)c1O | > 30 | 7.14 | 69.1 | > 30 | > 30 |
| COc1cc(C[C@@H](CO)[C@H](CO)Cc2ccc(O)c(OC)c2)ccc1O [(+)-SECOISOLARICIRESINOL] | > 30 | 18.8 | 87.6 | 21.5 | > 30 |
| COc1cc([C@@H]2c3cc(O)c(OC)cc3C[C@H](CO)[C@H]2CO)ccc1O [(-)-ISOLARICIRESINOL] | > 30 | 22.8 | 152 | 24.9 | 20.2 |
| COc1cc(C[C@H]2COC(=O)[C@@H]2Cc2ccc(O)c(OC)c2)ccc1O [MATAIRESINOL] | > 30 | 23.7 | 94.5 | > 30 | 23.8 |
| COc1cc(/C=C/C=O)ccc1O [CONIFERYL ALDEHYDE] | > 30 | > 30 | – | > 30 | 21.2 |
| COc1ccc(CC(=O)O)cc1 | > 30 | 28.1 | – | > 30 | > 30 |
| COc1cc([C@@H](O)[C@@H](CO)Oc2ccc(CCCO)cc2OC)ccc1O | > 30 | 26.6 | 58.5 | > 30 | > 30 |
| COc1ccc([C@H](O)[C@@H](CO)Oc2c(OC)cc([C@@H]3Oc4c(OC)cc(CCCO)cc4[C@H]3CO)cc2OC)cc1OC [BERBIKONOL] | > 30 | 19.3 | 90.9 | 27.3 | > 30 |
| COc1cc([C@@H]2c3c(cc(OC)c(O)c3OC)C[C@H](CO)[C@H]2CO)cc(OC)c1O | > 30 | 26.5 | 113 | > 30 | 21.2 |
| COc1cc(C(=O)O)ccc1O [VANILLIC ACID] | > 30 | > 30 | – | > 30 | > 30 |
| COC(=O)[C@H](CO)c1cc(OC)c(O)c(OC)c1 [BERFUSSINOL] | > 30 | > 30 | – | 27.2 | > 30 |
| CNC(=N)NCCC[C@H](N)C(=O)O [TILARGININE] | – | – | 17.1 | – | – |
